Values quoted from earlier work in US12234263B2, “Influenza vaccines” (InvVax, Inc., priority 2016, dated 2025).

Test system: CD8 T-cell
Details: BALB/C; worldwideweb.fludb.org

**Q.** Which “experimentally validated CD8 T-cell epitope” value does the source give for TYQRTRALV [SEQ ID NO: 37] here?
**A.** experimentally validated BALB/C influenza A virus CD8 T-cell epitope
